Experimental data reported in patent publication US20090239926A1, “METHODS FOR THE TREATMENT OF PSORIASIS OR PSORIATIC ARTHRITIS USING CYCLOPROPYL-N-CARBOXAMIDE” (priority 2008, published 2009).
“And” between values parts separate entries of the source, which are not always exact repeats. Identical values can stand only once.

Tests used:
[1] = tested on: normal human skin xenotransplanted onto beige-SCID mice injected with psoriatic patient NK cells; assay: Human NK cell-driven psoriasis model: human skin xenotransplanted onto beige-SCID mice; format: in vivo; details: 5 mg/kg/day p.o., b.i.d., 14 days
Protocol: Healthy human skin pieces having a width of 0.4 mm and surface area of 3×3 cm were provided from residual skin of routine plastic surgery procedures from the Plastic Surgery Department of the Rambam Medical Center, Isreal. In addition, blood samples from psoriatic patients were taken at a volume of 25 mL.
Twenty-one (21) beige-severe combined immunodeficient mice (SCID) (weight about 20 g) were included in this study. Normal human skin was transplanted onto the beige-SCID mice as previously described by Nickoloff et al., 1995; Wrone-Smith, et al., 1996. A sample of each donor was transplanted onto […] so that the three treatment groups (n=7 mice/group) were homogenous.
PBMC from the psoriatic patient blood were isolated and cultured in the presence of IL-2 (100 U/mL of media) for 14 days to activate the NK cells, as previously described by Gilhar et al., J. Invest. Dermatol. 2002, 119(2):384-91. Four weeks following the engraftment, each mouse was injected with 1×10^7 psoriatic patients activated allogeneic NK cells (1×10^7 cells injected/mouse, n=21). Two weeks following the injections, the mice were divided and treated, twice a day for 14 days. All compounds were dosed at 5 mg/kg/day, divided into b.i.d. doses. To perform p.o. administration, mice were held firmly by gently gripping their fur over the neck with thumb and index fingers and restraining the tail with the little finger. A volume of 0.05 mL of a 1 mg/ml aqueous solution of Compound A was administrated twice a day (b.i.d.) with a syringe through a blunt-ended curved feeding tube, which was inserted into the esophagus. The vehicle (negative) control groups received 0.05 mL (b.i.d.) of a 0.5% carboxymethylcellulose and 0.25% Tween 80. […] Two weeks after starting the treatments (4 weeks following the injections), the skins were harvested. Grafts were analyzed by histology and immunohistochemistry.
Determination of Epidermal Thickness: Skin graft histological assessment was performed by light microscopy both before and after transplantation and two blinded observers performed the evaluations. Epidermal thickness was determined with an ocular micrometer, at a minimum of 50 points along the epidermis selected to represent points of maximal and minimal thickness. Thickness of the suprapapillary plate was similarly measured at 50 points for each sample.
Immunohistochemical Staining: Monoclonal antibodies to human antigens used were as follows for immunohistochemistry on frozen sections: anti-HLA-DR (Becton Dickenson, San Jose, Calif.), and anti-CD54 (ICAM-1) (Biodesign, Saco, Me.). Purified murine IgG was used as a control for the above antibodies. Immunohistochemistry was performed on OCT embedded specimens with a biotin-avidin system (Vectostain, Vector Laboratories, Burlingame, Calif.).
Goat anti-human TNF-α (R&D Systems, Minneapolis, Minn.) was used on deparaffinized and peroxidase blocked slides. Sections were treated with citrate buffer, pH=6, in the microwave oven for 20 minutes. The sections were then cooled for 30 minutes at room temperature and blocked for non-specific binding as well as avidin-biotin. All washes were performed with phosphate-buffered saline-saponin. Anti-TNF-α was applied overnight at 4° C. Slides were then incubated with biotinylated rabbit anti goat-IgG (DAKO, Carpinteria, Calif.), followed by streptavidin horseradish peroxidase (HRP) (Jackson Immunoresearch, West Grove, Pa.). The color was developed with 3-amino-9-ethylcarbazole (AEC).
Scoring of Immunohistochemical Staining: Diffuse staining was defined as positive and intense expression of more than 50 percent of the epidermis versus focal staining which was defined as less than 50 percent of the epidermis. Focal staining may represent positive expression of very small areas.
Statistical Analysis: Statistical analysis was carried out using the one-way ANOVA with a Bonferroni Multiple Comparison post-hoc test using Prism 4.00 (GraphPad Software; San Diego, Calif.).

[2] = tested on: cAMP in PGE2-stimulated human PBMC; assay: PGE2-induced cAMP elevation in human PBMC; format: cell-based; details: PGE2 10 μM
Excerpt: Prostaglandin E2 (PGE2) binds to prostanoid receptors on monocytes, T cells and other leukocytes and consequently elevates intracellular cAMP levels, resulting in inhibition of cellular responses. The combination of PGE2 and a PDE4 inhibitor synergistically elevates cAMP levels in these cell types, and the elevation of cAMP in PBMC caused by PDE4 inhibitors in the presence of PGE2 is proportional to the inhibitory activity of that PDE4 inhibitor.
Human PBMCs were isolated as described above and plated in 96-well plates at 1×10^6 cells per well in RPMI-1640. The cells were pre-treated with Compound A in a final concentration of 2% DMSO in duplicate at 37° C. in a humidified incubator at 5% CO2 for one hour. The cells were then stimulated with PGE2 (10 μM) (Sigma) for one hour. The cells were lysed with HCl, 0.1N final concentration to inhibit phosphodiesterase activity and the plates were frozen at −20° C. The cAMP produced was measured using cAMP (low pH) Immunoassay kit (R&D Systems).

bovine PDE1 = assay: Specificity: PDE1; format: biochemical; details: at 10 μM
Protocol: The specificity of Compound A for PDE4 was assessed by testing at a single concentration (10 μM) against bovine PDE1, human PDE2, PDE3 and PDE5 from human platelets, and PDE6 from bovine retinal rod outer segments.

Question: Which results are given for `CCOc1cc([C@@H](CS(C)(=O)=O)N2Cc3cccc(NC(=O)C4CC4)c3C2=O)ccc1OC` [Compound A, cyclopropyl-N-{2-[(1S)-1-(3-ethoxy-4-methoxyphenyl)-2-(methylsulfonyl)ethyl]-3-oxoisoindoline-4-yl}carboxamide]?
Answer: HLA-DR staining: number of grafts (of 7) with Diffuse pattern [1]: 4 Diffuse; Histological features: Complete Recovery (grafts of 7) [1]: 3/7; Histological features: Partial Recovery (grafts of 7) [1]: 1/7; Histological features: Psoriasiform (grafts of 7) [1]: 3/7; ICAM-1 staining: number of grafts (of 7) with Diffuse pattern [1]: 3 Diffuse; Recovery, partial or complete (grafts of 7) [1]: (4/7); TNF-α staining: number of grafts (of 7) with Multiple TNF-α positive cells [1]: 3 Multiple; decrease in epidermal thickness compared to vehicle treated animals [1]: ~50%; grafts (of 7) with ICAM-1 reduced to focal or negative expression [1]: 4/7; grafts (of 7) with few or negative TNF-α expressing cells [1]: 4/7; overall response rate (partial plus complete recovery from psoriasis features) [1]: 57%; percentage of grafts with HLA-DR reduced to focal or negative expression [1]: 43%; percentage of grafts with ICAM-1 reduced to focal or negative expression [1]: 57%; percentage of grafts with focal HLA-DR expression [1]: 14.3%; percentage of grafts with negative HLA-DR expression [1]: 28.6%; percentage of grafts with reduced TNF-α expression (partial and complete recovery) [1]: 57%; Epidermal Thickness, Mean ([1]; mean of 7 grafts): 736 μm; Proliferation Index (Ki-67 positive keratinocytes), Mean ([1]; mean of 7 grafts): 26.2%; mean epidermal thickness ([1]; mean of 7 mice): 736 microns; Epidermal Thickness of individual skin graft ([1]; Patient 1): 687 μm; Histological Evaluation of individual skin graft ([1]; Patient 1): Partial recovery w/; Proliferation Index of individual skin graft ([1]; Patient 1): 41.9%; Epidermal Thickness of individual skin graft ([1]; Patient 2): 1098 μm; Histological Evaluation of individual skin graft ([1]; Patient 2): Psoriasiform; Proliferation Index of individual skin graft ([1]; Patient 2): 47.4%; Epidermal Thickness of individual skin graft ([1]; Patient 3): 626 μm; Histological Evaluation of individual skin graft ([1]; Patient 3): Psoriasiform; Proliferation Index of individual skin graft ([1]; Patient 3): 33.5%; Epidermal Thickness of individual skin graft ([1]; Patient 4): 333 μm; Histological Evaluation of individual skin graft ([1]; Patient 4): Complete recovery; Proliferation Index of individual skin graft ([1]; Patient 4): 12.2%; Epidermal Thickness of individual skin graft ([1]; Patient 5): 457 μm; Histological Evaluation of individual skin graft ([1]; Patient 5): Complete recovery; Proliferation Index of individual skin graft ([1]; Patient 5): 9.2%; Epidermal Thickness of individual skin graft ([1]; Patient 6): 627 μm; Histological Evaluation of individual skin graft ([1]; Patient 6): Complete recovery; Proliferation Index of individual skin graft ([1]; Patient 6): 21.4%; Epidermal Thickness of individual skin graft ([1]; Patient 7): 1324 μm; Histological Evaluation of individual skin graft ([1]; Patient 7): Psoriasiform; Proliferation Index of individual skin graft ([1]; Patient 7): 17.5%; EC50 [2]: 6.1 µM and 2.9 µg/mL; PDE1 % inhibition (bovine PDE1): 30%
